Structures can show the parent of a compound that is named as a salt.
target: T1, 5-HT3 (Homo sapiens, UniProt P46098); assay: Compound affinity for the human 5-HT3 receptor (Assay B), SPA radioligand binding with [9-methyl-3H]BRL-43694; parameters: purchased Perkin Elmer; details: Assay B (method B unless otherwise annotated); read-out: 5-HT3 Ki
T1 sequence (P46098 24-478): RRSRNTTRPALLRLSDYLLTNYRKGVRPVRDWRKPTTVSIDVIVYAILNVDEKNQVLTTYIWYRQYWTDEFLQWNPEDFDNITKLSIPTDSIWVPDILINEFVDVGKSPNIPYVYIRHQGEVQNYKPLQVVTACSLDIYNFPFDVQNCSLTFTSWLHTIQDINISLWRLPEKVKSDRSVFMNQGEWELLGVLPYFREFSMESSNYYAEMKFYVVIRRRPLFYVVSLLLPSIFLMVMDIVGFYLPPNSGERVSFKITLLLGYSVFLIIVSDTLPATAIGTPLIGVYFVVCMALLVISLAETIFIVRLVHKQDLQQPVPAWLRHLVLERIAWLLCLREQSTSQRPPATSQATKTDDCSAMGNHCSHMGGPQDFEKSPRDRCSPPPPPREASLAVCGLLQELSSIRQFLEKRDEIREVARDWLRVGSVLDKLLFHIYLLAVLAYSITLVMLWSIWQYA
Summary of the method: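 Ten competitor concentrations in duplicate; specific binding (total minus nonspecific) fitted for IC50, converted to Ki by Cheng-Prusoff.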

Compound | Ki [nM]
CN1[C@@H]2CCC[C@H]1C[C@@H](NC(=O)c1cccc3oc(N4CCn5c(nnc5C(F)(F)F)C4)nc13)C2 [Example 54, Endo-N-(9-Methyl-9-azabicyclo[3.3.1]nonan-3-yl)-2-(3-(trifluoromethyl)-5,6-dihydro-[1,2,4]triazolo[4,3-a]pyrazin-7(8H)-yl)benzoxazole-4-carboxamide Hydrochloride] | 118
C[C@@H]1CNCCN1c1nc2c(C(=O)N[C@H]3C[C@H]4CCC[C@@H](C3)N4C)cccc2o1 [Example 41b, Endo-N-(9-Methyl-9-azabicyclo[3.3.1]nonan-3-yl)-2-[(R)-2-methylpiperazin-1-yl]benzoxazole-4-carboxamide Hydrochloride] | 125
CN1[C@@H]2CCC[C@H]1C[C@@H](NC(=O)c1cccc3oc(N4CCS(=O)(=O)CC4)nc13)C2 [Example 82, Endo-N-(9-Methyl-9-azabicyclo[3.3.1]nonan-3-yl)-2-(thiomorpholine 1,1-dioxide)benzoxazole-4-carboxamide Hydrochloride] | 132
CN1[C@@H]2CCC[C@H]1C[C@@H](NC(=O)c1cccc3oc(Nc4ccncc4)nc13)C2 [Example 27, Endo-N-(9-Methyl-9-azabicyclo[3.3.1]non-3-yl)-2-(pyridine-4-ylamino)benzoxazole-4-carboxamide Dihydrochloride] | 4.5
CC(C)N(C)c1nc2c(C(=O)N[C@@H]3CN4CCC3CC4)cccc2o1 [Example 85, (S)—N-(quinuclidine-8-yl)-2-(isopropyl(methyl)amino)benzoxazole-4-carboxamide Hydrochloride] | 28.9
CN1[C@@H]2CCC[C@H]1C[C@@H](NC(=O)c1cccc3oc(N4CCN(c5ncccn5)CC4)nc13)C2 [Example 42, Endo-N-(9-Methyl-9-azabicyclo[3.3.1]nonan-3-yl)-2-(4-(pyrimidin-2-yl)piperazin-1-yl)benzoxazole-4-carboxamide Hydrochloride] | 11
CN1[C@@H]2CCC[C@H]1C[C@@H](NC(=O)c1cccc3oc(N4CCOCC4)nc13)C2 [Example 9, Endo-N-(9-Methyl-9-azabicyclo[3.3.1]non-3-yl)-2-morpholinobenzoxazole-4-carboxamide Hydrochloride] | 42
CC1CN(c2nc3c(C(=O)N[C@H]4C[C@H]5CCC[C@@H](C4)N5C)cccc3o2)CCN1 (stereo partly drawn) [Example 95, Endo-N-(9-Methyl-9-azabicyclo[3.3.1]nonan-3-yl)-2-(3-methylpiperazin-1-yl)benzoxazole-4-carboxamide Hydrochloride] | 52.4
CN1[C@@H]2CCC[C@H]1C[C@@H](NC(=O)c1cccc3oc(NCCCO)nc13)C2 [Example 40, Endo-N-(9-Methyl-9-azabicyclo[3.3.1]nonan-3-yl)-2-(3-hydroxypropylamino)benzoxazole-4-carboxamide Hydrochloride] | 7.8
CN1CCN(c2nc3c(C(=O)N[C@H]4C[C@H]5CCC[C@@H](C4)N5C)cccc3o2)C(c2ccccc2)C1 (mixture of isomers) [Example 23, Endo-N-(9-Methyl-9-azabicyclo[3.3.1]non-3-yl)-2-(4-methyl-2-phenylpiperazin-1-yl)benzoxazole-4-carboxamide Dihydrochloride] | 25.2
CC(C)C[C@H]1CN(c2nc3c(C(=O)NC4CC5CCCC(C4)N5C)cccc3o2)CCN1 (stereo partly drawn) [Example 74, Endo-N-(9-Methyl-9-azabicyclo[3.3.1]nonan-3-yl)-2-((3S)-3-isobutylpiperazine-1-yl)benzoxazole-4-carboxamide Hydrochloride] | 72.9
CC[C@H]1COCCN1c1nc2c(C(=O)NC3CC4CCCC(C3)N4C)cccc2o1 (stereo partly drawn) [Example 36, Endo-N-(9-Methyl-9-azabicyclo[3.3.1]nonan-3-yl)-2-((S)-3-ethylmorpholine)benzoxazole-4-carboxamide Hydrochloride] | 4.7
CN1[C@@H]2CCC[C@H]1C[C@@H](NC(=O)c1cccc3oc(N4CCC5(CC4)OCCO5)nc13)C2 [Example 91, Endo-N-(9-Methyl-9-azabicyclo[3.3.1]nonan-3-yl)-2-(1,4-dioxa-8-azaspiro[4.5]decan-8-yl)benzoxazole-4-carboxamide Hydrochloride] | 14.5
CN1[C@@H]2CCC[C@H]1C[C@@H](NC(=O)c1cccc3oc(NC4CCCCC4)nc13)C2 [Example 70, Endo-N-(9-Methyl-9-azabicyclo[3.3.1]nonan-3-yl)-2-(cyclohexylamino)benzoxazole-4-carboxamide Hydrochloride] | 19.2
C[C@H]1CN(C(=O)N(C)C)C[C@H](C)N1c1nc2c(C(=O)NC3CC4CCCC(C3)N4C)cccc2o1 (stereo partly drawn) [Example 136, Endo-N-(9-methyl-9-azabicyclo[3.3.1]nonan-3-yl)-2-((2S,6S)-2,6-dimethyl-4-(dimethylcarbamoyl)piperazin-1-yl)benzoxazole-4-carboxamide Hydrochloride] | 2.6
CC(C)OC(=O)N1C[C@H](C)N(c2nc3c(C(=O)NC4CC5CCCC(C4)N5C)cccc3o2)[C@@H](C)C1 (stereo partly drawn) [Example 143, Endo-N-(9-methyl-9-azabicyclo[3.3.1]nonan-3-yl)-2-((2S,6S)-4-(isopropoxycarbonyl)-2,6-dimethylpiperazin-1-yl)benzoxazole-4-carboxamide Hydrochloride] | 1.4
CN1[C@@H]2CCC[C@H]1C[C@@H](NC(=O)c1cccc3oc(N4CCOCC4c4ccccc4)nc13)C2 (mixture of isomers) [Example 19, Endo-N-(9-Methyl-9-azabicyclo[3.3.1]non-3-yl)-2-(3-phenylmorpholino)benzoxazole-4-carboxamide Hydrochloride] | 17
Cc1nc[nH]c1CNC(=O)c1cc(Cl)cc2oc(N)nc12 [Example 145, N-((4-methyl-1H-imidazol-5-yl)methyl)-2-amino-6-chlorobenzoxazole-4-carboxamide] | 127
CN1C2CCCC1CC(NC(=O)c1cc(Cl)cc3oc(N4CCOC[C@@H]4C(C)(C)C)nc13)C2 (stereo partly drawn) [Example 80, Endo N-(9-Methyl-9-azabicyclo[3.3.1]nonan-3-yl)-2-((S)-3-tert-butylmorpholino)-6-chloro-benzoxazole-4-carboxamide Hydrochloride] | 29.4
CC(C)[C@H]1CNCCN1c1nc2c(C(=O)NC3CC4CCCC(C3)N4C)cccc2o1 (stereo partly drawn) [Example 76, Endo-N-(9-Methyl-9-azabicyclo[3.3.1]nonan-3-yl)-2-((S)-2-isopropylpiperazin-1-yl)benzoxazole-4-carboxamide Hydrochloride] | 9.8
COc1ccc(Nc2nc3c(C(=O)N[C@H]4C[C@H]5CCC[C@@H](C4)N5C)cccc3o2)cc1 [Example 59, Endo-N-(9-methyl-9-azabicyclo[3.3.1]nonan-3-yl)-2-(4-methoxyphenylamino)benzoxazole-4-carboxamide Hydrochloride] | 7.6
C[C@H]1CN(C(=O)C2CCCCC2)C[C@H](C)N1c1nc2c(C(=O)NC3CC4CCCC(C3)N4C)cccc2o1 (stereo partly drawn) [Example 132, Endo-N-(9-methyl-9-azabicyclo[3.3.1]nonan-3-yl)-2-((2S,6S)-4-(cyclohexanecarbonyl)-2,6-dimethylpiperazin-1-yl)benzoxazole-4-carboxamide Hydrochloride] | 1.9
CN1CCN(c2nc3c(C(=O)NC4CN5CCC4CC5)cccc3o2)C(c2ccccc2)C1 (racemic) [Example 24, (S)—N-(quinuclidine-8-yl)-2-(4-methyl-2-phenylpiperazin-1-yl)benzoxazole-4-carboxamide Dihydrochloride] | 103
CC(O)CCNc1nc2c(C(=O)N[C@H]3C[C@H]4CCC[C@@H](C3)N4C)cccc2o1 (stereo partly drawn) [Example 61, Endo-N-(9-methyl-9-azabicyclo[3.3.1]nonan-3-yl)-2-(3-hydroxybutylamino)benzoxazole-4-carboxamide Hydrochloride] | 19.9
O=C(N[C@@H]1CN2CCC1CC2)c1cccc2oc(N3CCCCC3)nc12 [Example 4, (S)—N-(quinuclidine-8-yl)-2-(piperidin-1-yl)benzoxazole-4-carboxamide hydrochloride] | 34.2
O=C(N[C@@H]1CN2CCC1CC2)c1cccc2oc(Nc3ccncc3)nc12 [Example 28, (S)—N-(quinuclidine-8-yl)-2-(pyridin-4-ylamino)benzoxazole-4-carboxamide Dihydrochloride] | 5.3
CN1[C@@H]2CCC[C@H]1C[C@@H](NC(=O)c1cccc3oc(N4CCNCC4)nc13)C2 [Example 21, Endo-N-(9-Methyl-9-azabicyclo[3.3.1]non-3-yl)-2-(piperazin-1-yl)benzoxazole-4-carboxamide Dihydrochloride] | 74.6
CC(C)COC(=O)N1C[C@H](C)N(c2nc3c(C(=O)NC4CC5CCCC(C4)N5C)cccc3o2)[C@@H](C)C1 (stereo partly drawn) [Example 138, Endo-N-(9-methyl-9-azabicyclo[3.3.1]nonan-3-yl)-2-((2S,6S)-4-(isobutoxycarbonyl)-2,6-dimethylpiperazin-1-yl)benzoxazole-4-carboxamide Hydrochloride] | 2.4
CN1[C@@H]2COC[C@H]1C[C@@H](NC(=O)c1cccc3oc(N4CCOCC4)nc13)C2 [Example 44, Endo-N-(9-Methyl-3-oxa-9-azabicyclo[3.3.1]nonan-7-yl)-2-morpholinobenzoxazole-4-carboxamide Hydrochloride] | 323
C[C@H]1CN(C(=O)c2ccccc2)C[C@H](C)N1c1nc2c(C(=O)NC3CC4CCCC(C3)N4C)cccc2o1 (stereo partly drawn) [Example 117, Endo-N-(9-methyl-9-azabicyclo[3.3.1]nonan-3-yl)-2-((2S,6S)-4-benzoyl-2,6-dimethylpiperazin-1-yl)benzoxazole-4-carboxamide Hydrochloride] | 2.3

Source: patent US7863271B2, “2-aminobenzoxazole carboxamides as 5HT3 modulators” (Albany Molecular Research, Inc., priority 2006, dated 2011)
